Test systems include MCF7 breast; HS 578T breast; EKVX NSCLC; HCT-116 colon; SNB-75 CNS; SF-268 CNS; HT29 colon; RXF 393 renal; A498 renal; HOP-62 NSCLC.
Test in all cases: NCI tumour cell line growth inhibition, 48 h

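Protocol summary: plate cells (96-well), add compound at 5 concentrations, incubate 48 h, interpolate endpoints linearly. GI50 is the concentration that inhibits growth by half. TGI marks complete inhibition of growth.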

Consider 13 compounds from PubChem BioAssay (NCI).

Turning to `Oc1ccc(-c2[nH]c3ccccc3c2-c2nc3ccccc3o2)cc1`, the GI50 in the assay on MCF7 breast is 2.83 µM; in the assay on HS 578T breast it was 2.47 µM; with EKVX NSCLC, 4.76 µM; in the assay with HCT-116 colon, 3.15 µM; with SNB-75 CNS, 1.44 µM; in the assay on SF-268 CNS, 2.89 µM. The GI50 is 3.65 µM with HT29 colon, 4.24 µM in the assay with RXF 393 renal, 2.18 µM in the assay with A498 renal and 5.01 µM with HOP-62 NSCLC. Moreover, the TGI in the assay with MCF7 breast is 10.5 µM; with HS 578T breast it was 18.4 µM; in the assay with EKVX NSCLC it was 21.9 µM; in the assay with HCT-116 colon it was 13 µM; in the assay with SNB-75 CNS, 10.4 µM; in the assay with SF-268 CNS it was 12.9 µM. The TGI in the assay on HT29 colon worked out at 11.5 µM; in the assay with RXF 393 renal, 18.9 µM; in the assay on A498 renal, 14.9 µM; in the assay with HOP-62 NSCLC, 18.2 µM.
Take `COc1ccc(C(=O)/C=C/c2ccc(OCc3ccccc3)c(OC)c2)cc1OC`: the GI50 with MCF7 breast was 3.02 µM; with HS 578T breast, 2.8 µM; with HCT-116 colon, 3.19 µM; with SF-268 CNS it was 3.83 µM; in the assay with HT29 colon, 3.19 µM; in the assay on RXF 393 renal it was 2.32 µM. Besides, the GI50 with A498 renal was 3.24 µM; in the assay on HOP-62 NSCLC it was 3.67 µM. The TGI with MCF7 breast was more than 100 µM; in the assay with HS 578T breast it was 71.4 µM; with HCT-116 colon it was more than 100 µM; in the assay on SF-268 CNS it was more than 100 µM; in the assay with HT29 colon, 89.7 µM; with RXF 393 renal, 5.9 µM. The figures for the TGI in the assay with A498 renal and in the assay with HOP-62 NSCLC were 25.3 µM and more than 100 µM, respectively.
On to `CCN(CC)Cc1cc(Nc2cc(C(F)(F)F)c(C#N)c3nc4ccccc4n23)ccc1O`, for which the GI50 in the assay on MCF7 breast is 1.75 µM; with HS 578T breast, 2.39 µM; in the assay on EKVX NSCLC it was 0.526 µM; with HCT-116 colon, 1.6 µM; in the assay on SNB-75 CNS it was 1.41 µM; in the assay with SF-268 CNS it was 2.51 µM. The GI50 in the assay with HT29 colon was 2.5 µM; with RXF 393 renal it was 1.8 µM; in the assay on A498 renal, 1.44 µM; in the assay on HOP-62 NSCLC, 3.05 µM. Moreover, the TGI in the assay on MCF7 breast was 10.7 µM; in the assay on HS 578T breast, 12.1 µM; with EKVX NSCLC, 8.39 µM; with HCT-116 colon it was 4.45 µM; with SNB-75 CNS it was 7.54 µM; in the assay with SF-268 CNS, 18.3 µM. The TGI turned out to be 12.2 µM in the assay on HT29 colon, 5.81 µM in the assay on RXF 393 renal, 5.85 µM in the assay on A498 renal and 11.4 µM with HOP-62 NSCLC.
In the case of `CN(C)c1ccc2c(c1)OC(N)=C(C#N)C2c1ccc2c(c1)CCCN2C` (configuration not stated), the GI50 was 0.444 µM with MCF7 breast; 2.13 µM in the assay with HS 578T breast; 3.79 µM with EKVX NSCLC; 1.6 µM in the assay on HCT-116 colon; 2.27 µM in the assay with SNB-75 CNS; 6.85 µM in the assay with SF-268 CNS. The GI50 was 2.62 µM in the assay with HT29 colon, 1.43 µM in the assay on RXF 393 renal, 0.228 µM in the assay on A498 renal and 1.83 µM with HOP-62 NSCLC. The TGI in the assay on MCF7 breast was 33.4 µM; in the assay on HS 578T breast it was more than 100 µM; in the assay with EKVX NSCLC, more than 100 µM; in the assay with HCT-116 colon, 14.6 µM; in the assay with SNB-75 CNS, more than 100 µM; in the assay with SF-268 CNS it was more than 100 µM. Also, the TGI was 8.23 µM with HT29 colon, 5.58 µM in the assay on RXF 393 renal, 4.07 µM in the assay with A498 renal and 54.1 µM with HOP-62 NSCLC.
In the case of `Cc1ccc(NC2=CC(=O)C(=O)c3ccccc32)c(C)c1`, the GI50 in the assay with MCF7 breast is 0.905 µM; with HS 578T breast, 2.35 µM; in the assay with EKVX NSCLC it was 10.3 µM; in the assay with HCT-116 colon, 1.66 µM; with SNB-75 CNS it was 1.57 µM; in the assay with SF-268 CNS it was 3.75 µM. Moreover, the GI50 was 2.51 µM in the assay on HT29 colon, 9.59 µM with RXF 393 renal, 4.69 µM in the assay on A498 renal and 3.24 µM in the assay with HOP-62 NSCLC. Moreover, the TGI in the assay on MCF7 breast amounted to 4.77 µM; in the assay on HS 578T breast it was 7.99 µM; in the assay with EKVX NSCLC it was 24.3 µM; in the assay on HCT-116 colon, 4.23 µM; with SNB-75 CNS, 3.49 µM; in the assay with SF-268 CNS, 16.2 µM. For the same compound, the TGI in the assay on HT29 colon came to 7.08 µM; with RXF 393 renal, 21.6 µM; in the assay on A498 renal it was 17.8 µM; in the assay on HOP-62 NSCLC, 12.5 µM.
As for `O=c1c2ccccc2n2cnc3ccc(NCCNCCO)c1c32`, the TGI with MCF7 breast amounted to 9.62 µM; in the assay on HS 578T breast, 6.26 µM; in the assay on EKVX NSCLC, 8.49 µM; with HCT-116 colon, 8.29 µM; in the assay with SNB-75 CNS, 9.51 µM; in the assay with SF-268 CNS, 8.01 µM. In addition, the TGI was 6.84 µM in the assay on HT29 colon, 4.65 µM in the assay on RXF 393 renal, 6.96 µM with A498 renal and 10.9 µM in the assay on HOP-62 NSCLC.
For the compound `Cc1nn2c(-c3nc4cc(Cl)c(Cl)cc4[nH]3)c(-c3ccc(F)cc3)nc2s1`, the GI50 in the assay with MCF7 breast is 13.6 µM; in the assay on HS 578T breast, 2.78 µM; in the assay on HCT-116 colon, 1.3 µM; with SNB-75 CNS it was 1.56 µM; in the assay on SF-268 CNS, 3.15 µM; with HT29 colon, 1.91 µM. Moreover, the values for the GI50 in the assay with RXF 393 renal, in the assay with A498 renal and with HOP-62 NSCLC were 1.84 µM, 2.09 µM and 1.93 µM, respectively. Besides, the TGI in the assay with MCF7 breast was more than 100 µM; in the assay on HS 578T breast it was more than 29.6 µM; with HCT-116 colon, more than 26 µM; with SNB-75 CNS it was 3.71 µM; with SF-268 CNS it was more than 52.8 µM; in the assay with HT29 colon, more than 100 µM. Further, the TGI in the assay on RXF 393 renal turned out to be 5.41 µM; with A498 renal, 8.37 µM; in the assay on HOP-62 NSCLC, 7.26 µM.
As for `O=C(Nc1ccc(Br)cc1)Nc1cccc(Br)c1`, the GI50 is 3.2 µM in the assay on MCF7 breast; more than 100 µM in the assay on HS 578T breast; 10.2 µM in the assay with SNB-75 CNS; more than 100 µM with SF-268 CNS; more than 100 µM in the assay on RXF 393 renal; 4.81 µM in the assay with A498 renal. Moreover, in the assay on HOP-62 NSCLC, the GI50 was 7.24 µM. Also, the TGI is more than 100 µM in the assay on MCF7 breast; more than 100 µM in the assay with HS 578T breast; 63 µM in the assay with SNB-75 CNS; more than 100 µM in the assay on SF-268 CNS; more than 100 µM with RXF 393 renal; more than 100 µM in the assay with A498 renal. Besides, the TGI in the assay on HOP-62 NSCLC is more than 100 µM.
On to `CC1(C)N=C(N)N=C(N)N1c1ccc(OCCCCNC(=O)Nc2cccc(S(=O)(=O)F)c2)c(Cl)c1`, for which the GI50 in the assay on MCF7 breast is 2.09 µM; in the assay with HS 578T breast, 19.3 µM; in the assay with HCT-116 colon, 0.594 µM; with SNB-75 CNS, 2.98 µM; with SF-268 CNS, 0.649 µM; in the assay with HT29 colon, 0.611 µM. Besides, the GI50 in the assay with RXF 393 renal is 0.735 µM; with A498 renal, 14.5 µM; with HOP-62 NSCLC, 10.6 µM. In addition, the TGI was more than 100 µM in the assay on MCF7 breast; more than 100 µM in the assay on HS 578T breast; more than 100 µM in the assay on HCT-116 colon; 48.7 µM with SNB-75 CNS; more than 100 µM with SF-268 CNS; more than 100 µM with HT29 colon. Also, the TGI in the assay on RXF 393 renal, with A498 renal and in the assay with HOP-62 NSCLC was more than 100 µM in each case.
`Nc1n[nH]c2ccc([C@@H]3Nc4c(F)cc5[nH]ncc5c4[C@H]4C5CCC(C5)[C@@H]34)cc12` (some centres not stated): the GI50 was 0.0702 µM in the assay on MCF7 breast; 0.178 µM in the assay with HS 578T breast; 0.632 µM in the assay with EKVX NSCLC; 0.293 µM in the assay on HCT-116 colon; 0.0993 µM in the assay with SNB-75 CNS; 2.34 µM in the assay with SF-268 CNS. The GI50 with HT29 colon is 0.317 µM; in the assay on A498 renal it was 0.0413 µM; in the assay on HOP-62 NSCLC it was 0.432 µM. The TGI was more than 43.4 µM with MCF7 breast; 8.78 µM in the assay on HS 578T breast; more than 71.5 µM with EKVX NSCLC; 6.22 µM in the assay with HCT-116 colon; 7.25 µM with SNB-75 CNS; more than 47.5 µM with SF-268 CNS. Also, the TGI in the assay with HT29 colon was more than 34.4 µM; with A498 renal, 0.337 µM; in the assay with HOP-62 NSCLC it was 38.5 µM.
In the case of `O=CC(O)C(O)C(OC1OC(CO)C(O)C(O)C1O)C(O)CO` (configuration not stated) (tested in a mixture with another compound), the TGI in the assay on MCF7 breast, with HS 578T breast, with HCT-116 colon, with SNB-75 CNS, in the assay on SF-268 CNS and in the assay with HT29 colon was more than 100 µM each time. Moreover, the TGI with RXF 393 renal, in the assay with A498 renal and with HOP-62 NSCLC was more than 100 µM in each case.
For the compound `Cc1ccc(C(=O)N2C/C(=C/c3ccccc3)C(=O)/C(=C/c3ccccc3)C2)cc1`, the GI50 with MCF7 breast is 0.387 µM; with HS 578T breast, 4.48 µM; in the assay on HCT-116 colon, 0.226 µM; in the assay on SNB-75 CNS, 2.58 µM; with SF-268 CNS, 10.8 µM; in the assay on HT29 colon it was 2.03 µM. Moreover, the GI50 was 2.2 µM with RXF 393 renal, more than 65 µM with A498 renal and 4.96 µM in the assay on HOP-62 NSCLC. The TGI in the assay on MCF7 breast was more than 41.9 µM; with HS 578T breast it was 50.7 µM; in the assay with HCT-116 colon, 0.548 µM; with SNB-75 CNS, 16.4 µM; with SF-268 CNS it was more than 100 µM; with HT29 colon, 7 µM. Moreover, the results for the TGI in the assay on RXF 393 renal, in the assay on A498 renal and in the assay on HOP-62 NSCLC were 6.39 µM, more than 100 µM and 61.3 µM, respectively.
In the case of `Cc1cn2c(/C=C3/C(=O)Nc4ccc(C(=O)O)cc43)c(C)nc2s1`, the GI50 in the assay on MCF7 breast, in the assay with HS 578T breast, in the assay with EKVX NSCLC, in the assay on SNB-75 CNS, in the assay with SF-268 CNS and in the assay on HT29 colon was more than 100 µM each time. For the same compound, the GI50 with A498 renal and in the assay on HOP-62 NSCLC was more than 100 µM throughout. In addition, the TGI with MCF7 breast, in the assay with HS 578T breast, in the assay with EKVX NSCLC, with SNB-75 CNS, in the assay with SF-268 CNS and in the assay with HT29 colon was more than 100 µM each time. Further, the TGI with A498 renal and with HOP-62 NSCLC was more than 100 µM throughout.
